This note sets out measurements from ChEMBL document CHEMBL1128997, “Synthesis and antitumor activity of a new class of water soluble camptothecin derivatives” (Bioorg Med Chem Lett, 1996).

Assay [1] relates to L1210. The experiment in a line: Compound was tested in vitro for cytotoxicity against L1210 murine leukemia cells. Type of assay: functional, cell-based. Particulars: Mus musculus.
Assay [2] deals with T1, DNA topoisomerase 1 (Homo sapiens, UniProt P11387).
T1 sequence (P11387 whole entry): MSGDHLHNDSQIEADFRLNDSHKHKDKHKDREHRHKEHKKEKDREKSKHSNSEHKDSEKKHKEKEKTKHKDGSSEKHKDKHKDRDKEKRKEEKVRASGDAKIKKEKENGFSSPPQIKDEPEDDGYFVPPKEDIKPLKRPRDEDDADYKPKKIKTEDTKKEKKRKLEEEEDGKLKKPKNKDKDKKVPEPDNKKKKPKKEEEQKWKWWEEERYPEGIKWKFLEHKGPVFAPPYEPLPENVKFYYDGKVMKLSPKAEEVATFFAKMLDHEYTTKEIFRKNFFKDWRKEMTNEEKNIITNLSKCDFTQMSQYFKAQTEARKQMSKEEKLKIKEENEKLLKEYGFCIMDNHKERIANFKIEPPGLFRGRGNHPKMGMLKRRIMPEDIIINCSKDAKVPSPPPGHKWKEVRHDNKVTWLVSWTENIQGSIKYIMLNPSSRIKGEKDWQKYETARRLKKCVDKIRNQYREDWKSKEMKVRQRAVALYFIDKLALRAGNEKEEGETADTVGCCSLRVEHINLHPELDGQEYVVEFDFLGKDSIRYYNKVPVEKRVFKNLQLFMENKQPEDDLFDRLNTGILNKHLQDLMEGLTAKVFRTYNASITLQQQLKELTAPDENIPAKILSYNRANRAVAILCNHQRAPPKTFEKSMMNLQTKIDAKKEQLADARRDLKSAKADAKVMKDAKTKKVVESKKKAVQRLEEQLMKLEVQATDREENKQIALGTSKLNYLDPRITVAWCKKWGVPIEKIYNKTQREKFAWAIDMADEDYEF
The experiment in a line: Compound was tested in vitro for inhibition of topoisomerase I.

Assay [3] has as its system Mus musculus. The experiment in a line: Activity against L1210 ascitic leukemia expressed as ratio of the median survival time of treated mice to that of untreated control X 100 after ip administration at a optimal dose of 1.5 mg/Kg. Type of assay: functional.
Assay [4] concerns Mus musculus. The experiment in a line: Activity against L1210 ascitic leukemia expressed as ratio of the median survival time of treated mice to that of untreated control X 100 after iv administration at a optimal dose of 2.5 mg/Kg. Type of assay: functional.
For assay [5], the system named is Mus musculus. The experiment in a line: Activity against L1210 ascitic leukemia expressed as ratio of the median survival time of treated mice to that of untreated control X 100 after iv administration at a optimal dose of 20 mg/Kg. Type of assay: functional.
Assay [6] relates to Mus musculus. The experiment in a line: Activity against L1210 ascitic leukemia expressed as ratio of the median survival time of treated mice to that of untreated control X 100 after ip administration at a optimal dose of 15 mg/Kg. Type of assay: functional.
The subject of assay [7] is Mus musculus. The experiment in a line: Activity against L1210 ascitic leukemia expressed as ratio of the median survival time of treated mice to that of untreated control X 100 after iv administration at a optimal dose of 15 mg/Kg. In kind it is functional.
The test system of assay [8] is Mus musculus. The experiment in a line: Activity against L1210 ascitic leukemia expressed as ratio of the median survival time of treated mice to that of untreated control X 100 after ip administration at a optimal dose of 10 mg/Kg. Type of assay: functional.

As a reminder, the IC50 is the concentration needed to halve the response being measured. Take `CC[C@@]1(O)C(=O)OCc2c1cc1n(c2=O)Cc2cc3c(/N=C/N(C)c4ccccc4)cccc3nc2-1`: the IC50 in assay [1] came out at 28.1 nM; in assay [2], 2200 nM.
For `CC[C@@]1(O)C(=O)OCc2c1cc1n(c2=O)Cc2cc3cc(/N=C/N(C)C)ccc3nc2-1`, the IC50 worked out at 94.5 nM in assay [1] and 42000 nM in assay [2].
The T/C is the ratio of treated to control. As for `CC[C@@]1(O)C(=O)OCc2c1cc1n(c2=O)Cc2cc3c(N)cccc3nc2-1` [9-AMINOCAMPTOTHECIN], the IC50 in assay [1] amounted to 12.7 nM; in assay [2], 4200 nM. For the same molecule, the T/C in assay [3] is listed as 163%; in assay [4], 138%.
On to `CC[C@@]1(O)C(=O)OCc2c1cc1n(c2=O)Cc2cc3c(/N=C/N4CCOCC4)cccc3nc2-1`, for which the half-maximal inhibitory concentration (IC50) turned out to be 125 nM in assay [1] and 69000 nM in assay [2].
For the molecule `CC[C@@]1(O)C(=O)OCc2c1cc1n(c2=O)Cc2cc3c(/N=C/N(C)C)cccc3nc2-1.Cl`, the IC50 in assay [1] was found to be 108 nM; in assay [2], 19200 nM. The T/C in assay [5] was 200%; in assay [6], 175%.
For the molecule `CC[C@@]1(O)C(=O)OCc2c1cc1n(c2=O)Cc2cc3c(NC=N)cccc3nc2-1.Cl`, the half-inhibitory concentration (IC50) worked out at 92.5 nM in assay [1] and 20400 nM in assay [2]. Besides, the T/C in assay [6] was 219%; in assay [7], 143%.
For `CC[C@@]1(O)C(=O)OCc2c1cc1n(c2=O)Cc2cc3c(/N=C(\C)N(C)C)cccc3nc2-1`, the IC50 in assay [1] was 689 nM; in assay [2], 3500 nM.
Consider `CC[C@@]1(O)C(=O)OCc2c1cc1n(c2=O)Cc2cc3c(N/C=N/C)cccc3nc2-1.Cl`, for which the IC50 in assay [1] came out at 52 nM; in assay [2], 6600 nM. The results for the T/C in assay [7] and in assay [8] were 167% and 169%, respectively.
Consider `CCc1c2c(nc3cccc(/N=C/N(C)C)c13)-c1cc3c(c(=O)n1C2)COC(=O)[C@]3(O)CC`, for which the IC50 in assay [1] worked out at 52.4 nM; in assay [2], 3600 nM.
